In brackets after ≈: the same amount, converted by molar mass. One block for each compound: values may come before it. Where a SMILES comes first, the peptide text is derived from it.
Key:
[1] = system: Escherichia coli; assay: Potentiation of colistin-induced antibacterial activity against Escherichia coli AR-0493 assessed as minimum re-sensitizing concentration; assay type: functional; details: read-out: MEC
[2] = Selectivity index, ratio of GI50 for cytotoxicity against human HepG2 cells to MEC for potentiation of colistin-induced antibacterial activity against Escherichia coli AR-0493 assessed as minimum re-sensitizing concentration; assay type: toxicity, cell-based; details: read-out: Selectivity Index
[3] = Cytotoxicity against human HepG2 cells by Cell Titer Glo assay; assay type: toxicity, cell-based
[4] = system: Escherichia coli; assay: Antibacterial activity against Escherichia coli AR-0493 by CLSI based susceptibility testing method; assay type: functional
[5] = system: Escherichia coli; assay: Potentiation of colistin-induced antibacterial activity against Escherichia coli AR-0538 harboring mcr-2 gene assessed as colistin MIC at 1 ug/ml; assay type: functional; details: dose 1 µg/ml
[6] = system: Salmonella typhimurium; assay: Potentiation of colistin-induced antibacterial activity against Salmonella typhimurium AR-0539 harboring mcr-3 gene assessed as colistin MIC at 1 ug/ml; assay type: functional, Salmonella enterica subsp. enterica serovar Typhimurium; details: Salmonella enterica, dose 1 µg/ml
[7] = system: Pseudomonas aeruginosa; assay: Potentiation of colistin-induced antibacterial activity against Pseudomonas aeruginosa AR-0239 assessed as colistin MIC at 1 ug/ml; assay type: functional; details: dose 1 µg/ml
[8] = system: Klebsiella pneumoniae; assay: Potentiation of colistin-induced antibacterial activity against Klebsiella pneumoniae AR-0497 harboring mcr-1 gene assessed as colistin MIC at 1 ug/ml; assay type: functional; details: dose 1 µg/ml
[9] = system: Escherichia coli; assay: Potentiation of colistin-induced antibacterial activity against Escherichia coli AR-0493 harboring mcr-1 gene assessed as colistin MIC at 1 ug/ml; assay type: functional; details: dose 1 µg/ml
[10] = system: Salmonella typhimurium; assay: Potentiation of colistin-induced antibacterial activity against Salmonella typhimurium AR-0635 harboring mcr-4 gene assessed as colistin MIC at 1 ug/ml; assay type: functional, Salmonella enterica subsp. enterica serovar Typhimurium; details: Salmonella enterica, dose 1 µg/ml
[11] = system: Acinetobacter baumannii; assay: Potentiation of colistin-induced antibacterial activity against Acinetobacter baumannii AR-0310 assessed as colistin MIC at 1 ug/ml; assay type: functional; details: dose 1 µg/ml
[12] = system: Escherichia coli; assay: Synergistic antibacterial activity against Escherichia coli AR-0493 assessed as fractional inhibitory concentration index in presence of colistin by Checkerboard broth microdilution assay; assay type: functional
[13] = system: Escherichia coli; assay: Antibacterial activity against Escherichia coli AR-0493 harboring mcr-1 gene; assay type: functional
[14] = system: Salmonella typhimurium; assay: Antibacterial activity against Salmonella typhimurium AR-0539 harboring mcr-3 gene; assay type: functional, Salmonella enterica subsp. enterica serovar Typhimurium; details: Salmonella enterica
[15] = system: Pseudomonas aeruginosa; assay: Antibacterial activity against Pseudomonas aeruginosa AR-0239; assay type: functional
[16] = system: Klebsiella pneumoniae; assay: Antibacterial activity against Klebsiella pneumoniae AR-0497 harboring mcr-1 gene; assay type: functional
[17] = system: Escherichia coli; assay: Antibacterial activity against Escherichia coli AR-0538 harboring mcr-2 gene; assay type: functional
[18] = system: Acinetobacter baumannii; assay: Antibacterial activity against Acinetobacter baumannii AR-0310; assay type: functional
[19] = system: Salmonella typhimurium; assay: Antibacterial activity against Salmonella typhimurium AR-0635 harboring mcr-4 gene; assay type: functional, Salmonella enterica subsp. enterica serovar Typhimurium; details: Salmonella enterica

Compound: CC(C)(C)Nc1nc2nonc2nc1NC(C)(C)C
minimal effective concentration [1]: 8 µg/mL

Compound: C1CCC(Nc2nc3nonc3nc2NC2CCCCC2)CC1
minimal effective concentration [1]: 4 µg/mL

Compound: CCCNc1nc2nonc2nc1NCCC
minimal effective concentration [1]: > 16 µg/mL

Compound: CCCCNc1nc2nonc2nc1NCCCC
minimal effective concentration [1]: 8 µg/mL

MIC [4]: > 64 µg/mL
Compound: CCCCCCNc1nc2nonc2nc1NCCCCCC
selectivity ratio [2]: 1.2
GI50 [3]: 0.59 µg/mL (≈ 1.84 µM)
minimal effective concentration [1]: 0.5 µg/mL

Compound: C1CCC(Nc2nc3nonc3nc2NC2CCCC2)C1
minimal effective concentration [1]: 8 µg/mL

Compound: Clc1cccc(Nc2nc3nonc3nc2Nc2cccc(Cl)c2)c1
MIC [5]: 1 µg/mL
MIC [6]: 1 µg/mL
MIC [7]: 1 µg/mL
MIC [8]: 1 µg/mL
MIC [9]: 1 µg/mL
MIC [10]: 1 µg/mL
MIC [11]: 0.25 µg/mL

Compound: FC1(F)CC(CNc2nc3nonc3nc2Nc2cccc(Cl)c2)C1
minimal effective concentration [1]: 1 µg/mL

Compound: CC(C)CCNc1nc2nonc2nc1NCCC(C)C
minimal effective concentration [1]: 2 µg/mL

Compound: Clc1ccc(CNc2nc3nonc3nc2NCc2ccc(Cl)cc2)cc1
selectivity ratio [2]: 36
MIC [5]: 1 µg/mL
MIC [6]: 1 µg/mL
MIC [7]: 1 µg/mL
GI50 [3]: 4.5 µg/mL (≈ 11.2 µM)
MIC [8]: 2 µg/mL
fractional inhibitory concentration index (FICI) [12]: 0.07
minimal effective concentration [1]: 0.125 µg/mL
MIC [4]: > 64 µg/mL
MIC [9]: 0.5 µg/mL
MIC [10]: 2 µg/mL
MIC [11]: 0.5 µg/mL

Compound: Clc1cccc(Nc2nc3nonc3nc2NCCc2c[nH]c3ccc(Cl)cc23)c1
minimal effective concentration [1]: 1 µg/mL

Compound: CCCCCCCCCCNc1nc2nonc2nc1Nc1cccc(Cl)c1
minimal effective concentration [1]: 2 µg/mL

Compound: CC(C)CNc1nc2nonc2nc1Nc1cccc(Cl)c1
minimal effective concentration [1]: 2 µg/mL

Compound: CCCNc1nc2nonc2nc1Nc1cccc(Cl)c1
minimal effective concentration [1]: 1 µg/mL

Compound: CCCCCCCCCCCCNc1nc2nonc2nc1Nc1cccc(Cl)c1
minimal effective concentration [1]: > 16 µg/mL

Compound: CCCCCCCCNc1nc2nonc2nc1Nc1cccc(Cl)c1
minimal effective concentration [1]: 1 µg/mL

Compound: CNc1nc2nonc2nc1Nc1cccc(Cl)c1
minimal effective concentration [1]: 8 µg/mL

Compound: Clc1ccc2[nH]cc(CCNc3nc4nonc4nc3NCCc3c[nH]c4ccc(Cl)cc34)c2c1
minimal effective concentration [1]: > 16 µg/mL

Compound: Clc1cccc(Nc2nc3nonc3nc2NCC2CC2)c1
minimal effective concentration [1]: 1 µg/mL

Compound: c1ccc(CCNc2nc3nonc3nc2NCCc2ccccc2)cc1
minimal effective concentration [1]: 2 µg/mL

MIC [4]: > 64 µg/mL
Compound: Clc1cccc(Nc2nc3nonc3nc2NCCc2ccccc2)c1
selectivity ratio [2]: 1.7
GI50 [3]: 0.83 µg/mL (≈ 2.26 µM)
minimal effective concentration [1]: 0.5 µg/mL

Compound: Clc1cccc(Nc2nc3nonc3nc2NCCNc2ccc3ccccc3n2)c1
minimal effective concentration [1]: 16 µg/mL

MIC [4]: > 64 µg/mL
Compound: FC(F)(F)c1cccc(CNc2nc3nonc3nc2Nc2cccc(Cl)c2)c1
selectivity ratio [2]: 22
GI50 [3]: 5.5 µg/mL (≈ 13.1 µM)
minimal effective concentration [1]: 0.25 µg/mL

Compound: FC(F)CNc1nc2nonc2nc1Nc1cccc(Cl)c1
minimal effective concentration [1]: 2 µg/mL

Compound: FC(F)(F)Oc1cccc(CNc2nc3nonc3nc2Nc2cccc(Cl)c2)c1
minimal effective concentration [1]: 1 µg/mL

Compound: Clc1cccc(Nc2nc3nonc3nc2NC2CCCCC2)c1
minimal effective concentration [1]: 1 µg/mL

MIC [4]: > 64 µg/mL
Compound: Clc1ccc(CNc2nc3nonc3nc2Nc2cccc(Cl)c2)cc1
selectivity ratio [2]: 19
GI50 [3]: 4.9 µg/mL (≈ 12.7 µM)
minimal effective concentration [1]: 0.25 µg/mL

Compound: c1ccc2nc(NCCNc3nc4nonc4nc3NCCNc3ccc4ccccc4n3)ccc2c1
minimal effective concentration [1]: > 16 µg/mL

Compound: Clc1cccc(Nc2nc3nonc3nc2NC2CC2)c1
minimal effective concentration [1]: 1 µg/mL

Compound: CCCCCCCCCCNc1nc2nonc2nc1NCCCCCCCCCC
minimal effective concentration [1]: > 16 µg/mL

Compound: CCCCCCNc1nc2nonc2nc1Nc1cccc(Cl)c1
minimal effective concentration [1]: 1 µg/mL

Compound: CCCCCCCCCCCCNc1nc2nonc2nc1NCCCCCCCCCCCC
minimal effective concentration [1]: > 16 µg/mL

Compound: Clc1cccc(Nc2nc3nonc3nc2NCC2COC2)c1
minimal effective concentration [1]: > 16 µg/mL

MIC [4]: > 64 µg/mL
Compound: CCCCCCCNc1nc2nonc2nc1Nc1cccc(Cl)c1
selectivity ratio [2]: 6.6
GI50 [3]: 3.3 µg/mL (≈ 9.15 µM)
minimal effective concentration [1]: 0.5 µg/mL

MIC [4]: > 64 µg/mL
Compound: CCCCNc1nc2nonc2nc1Nc1cccc(Cl)c1
selectivity ratio [2]: 11
GI50 [3]: 5.7 µg/mL (≈ 17.9 µM)
minimal effective concentration [1]: 0.5 µg/mL

Compound: Fc1cccc(CNc2nc3nonc3nc2Nc2cccc(Cl)c2)c1
minimal effective concentration [1]: 1 µg/mL

MIC [4]: > 64 µg/mL
Compound: CCCCCCCNc1nc2nonc2nc1NCCCCCCC
selectivity ratio [2]: 1.3
GI50 [3]: 0.65 µg/mL (≈ 1.87 µM)
minimal effective concentration [1]: 0.5 µg/mL

Compound: CC(C)(C)OC(=O)N1CC(CNc2nc3nonc3nc2Nc2cccc(Cl)c2)C1
minimal effective concentration [1]: 4 µg/mL

MIC [4]: > 64 µg/mL
Compound: Clc1cccc(CNc2nc3nonc3nc2NCc2cccc(Cl)c2)c1
selectivity ratio [2]: 3.2
GI50 [3]: 1.6 µg/mL (≈ 3.99 µM)
minimal effective concentration [1]: 0.5 µg/mL

Compound: CCCCCCCCNc1nc2nonc2nc1NCCCCCCCC
minimal effective concentration [1]: 4 µg/mL

Compound: FC(F)(F)c1nc(NCCCNc2nc3nonc3nc2Nc2cccc(Cl)c2)ccc1Cl
selectivity ratio [2]: 35
MIC [5]: 1 µg/mL
MIC [6]: 0.5 µg/mL
MIC [7]: 1 µg/mL
GI50 [3]: 8.7 µg/mL (≈ 17.4 µM)
MIC [8]: 1 µg/mL
fractional inhibitory concentration index (FICI) [12]: 0.039
minimal effective concentration [1]: 0.25 µg/mL
MIC [4]: > 64 µg/mL
MIC [9]: 0.5 µg/mL
MIC [10]: 1 µg/mL
MIC [11]: 0.25 µg/mL

Compound: CCCCCNc1nc2nonc2nc1NCCCCC
minimal effective concentration [1]: 1 µg/mL

Compound: Clc1cccc(Nc2nc3nonc3nc2NCC2CCC2)c1
minimal effective concentration [1]: 1 µg/mL

Compound: Clc1cccc(Nc2nc3nonc3nc2NC2CCCC2)c1
minimal effective concentration [1]: 1 µg/mL

Compound: CC(C)(C)Nc1nc2nonc2nc1Nc1cccc(Cl)c1
minimal effective concentration [1]: 2 µg/mL

MIC [4]: > 64 µg/mL
Compound: FC(F)(F)Oc1cccc(CNc2nc3nonc3nc2NCc2cccc(OC(F)(F)F)c2)c1
selectivity ratio [2]: 18
GI50 [3]: 2.3 µg/mL (≈ 4.6 µM)
minimal effective concentration [1]: 0.125 µg/mL

Compound: FC(F)(F)c1cccc(CNc2nc3nonc3nc2NCc2cccc(C(F)(F)F)c2)c1
minimal effective concentration [1]: > 16 µg/mL

MIC [4]: > 64 µg/mL
Compound: CCCCCNc1nc2nonc2nc1Nc1cccc(Cl)c1
selectivity ratio [2]: 4.3
GI50 [3]: 2.1 µg/mL (≈ 6.31 µM)
minimal effective concentration [1]: 0.5 µg/mL

Compound: Fc1cccc(CNc2nc3nonc3nc2NCc2cccc(F)c2)c1
minimal effective concentration [1]: > 16 µg/mL

MIC [4]: > 64 µg/mL
Compound: FC(F)(F)c1nc(NCCCNc2nc3nonc3nc2NCCCNc2ccc(Cl)c(C(F)(F)F)n2)ccc1Cl
selectivity ratio [2]: 10
GI50 [3]: 2.6 µg/mL (≈ 4.16 µM)
minimal effective concentration [1]: 0.25 µg/mL

MIC [4]: > 64 µg/mL
Compound: Clc1cccc(CNc2nc3nonc3nc2Nc2cccc(Cl)c2)c1
selectivity ratio [2]: 7.7
GI50 [3]: 3.8 µg/mL (≈ 9.81 µM)
minimal effective concentration [1]: 0.5 µg/mL

Compound: Nc1nc2nonc2nc1Nc1cccc(Cl)c1
minimal effective concentration [1]: 4 µg/mL

Compound: CC(C)CCNc1nc2nonc2nc1Nc1cccc(Cl)c1
minimal effective concentration [1]: 1 µg/mL

Compound: Clc1cccc(Nc2nc3nonc3nc2NC2CCC2)c1
minimal effective concentration [1]: 1 µg/mL

Compound: [H][C@@]1([C@@H](C)O)NC(=O)[C@H](CCN)NC(=O)[C@H](CCN)NC(=O)[C@H](CC(C)C)NC(=O)[C@@H](CC(C)C)NC(=O)[C@H](CCN)NC(=O)[C@@H](NC(=O)[C@H](CCN)NC[C@H](NC(=O)[C@H](CCN)NC(=O)CCCCC(C)C)[C@@H](C)O)CCNC1=O.[H][C@@]1([C@@H](C)O)NC(=O)[C@H](CCN)NC(=O)[C@H](CCN)NC(=O)[C@H](CC(C)C)NC(=O)[C@@H](CC(C)C)NC(=O)[C@H](CCN)NC(=O)[C@@H](NC(=O)[C@H](CCN)NC[C@H](NC(=O)[C@H](CCN)NC(=O)CCCCC(C)CC)[C@@H](C)O)CCNC1=O (stereo partly drawn) (HELM PEPTIDE1{[C[C@@H](O)[C@H](CN[C@@H](CCN)C(=O)[*:2])N[*:3]].[Dab].[Dab].[dL].L.[Dab].[Dab].T}|PEPTIDE2{[CCC(C)CCCCC(=O)[*:2]].[Dab]}$PEPTIDE1,PEPTIDE2,1:R3-2:R2|PEPTIDE1,PEPTIDE1,2:R3-8:R2$$$V2.0)
MIC [13]: 8 µg/mL
MIC [14]: 8 µg/mL
MIC [15]: 4 µg/mL
MIC [16]: 16 µg/mL
MIC [17]: 8 µg/mL
MIC [18]: 8 µg/mL
MIC [19]: 16 µg/mL

— ChEMBL document CHEMBL6087399, “Extended structure-activity relationship studies of the [1,2,5]oxadiazolo[3,4-b]pyrazine-containing colistin adjuvants” (Bioorg Med Chem Lett, 2025)
